Literature values, collected in EP4699692A1, “ACIDIC GAS ADSORBENT, STRUCTURE COMPRISING ACIDIC GAS ADSORBENT, ACIDIC GAS ADSORPTION DEVICE, AND ACIDIC GAS ADSORBENT PRODUCTION METHOD” (Nitto Denko Corporation, priority 2023, dated 2024).

Assays:
[1] = amine monomer; regulatory class
[2] = amine monomer
[3] = amine monomer; regulatory class; remark: listed apart in the source
[4] = amine monomer; remark: listed apart in the source

## NCCNCCNCCN [TETA, triethylenetetramine]
[1]
  Poisonous and Deleterious Substances Control Act: Deleterious substance
[2]
  Mutagenicity test (Ames test): Positive
[3]
  Fire Service Act: Hazardous material category IV class III petroleums
[4]
  Skin irritation test (rabbit): Strong irritant
